Data: publication PMC3652823 (PLoS ONE, 2013)
Where two headings read alike, the source gives them in different places.

Columns and labels:
[1] = rat, in vivo, po; cited from earlier work
[2] = rat, in vivo, po, cited from earlier work
[3] = in vivo; conditions: male, SD, rat, po
[4] = biological target: protein kinase C (PKCα); set-up: method as in earlier work; conditions: read-out: IC50, inhibition of protein kinase C (PKCα); cited from earlier work
[5] = set-up: method as in Gao et al. (2008) [16]; conditions: in situ loop method in rats; ref Gao et al. (2008) [16]; cited from earlier work
[6] = system: influenza virus strain, A/PR8/34(H1N1); experiment: Antiviral effect of serum after oral administration on influenza virus in MDCK cells (MTT); format: cell-based; conditions: COS 25 mg/kg, ribavirin 20 mg/kg, MTT after 48 h
[7] = system: Caco-2 cell monolayers; format: in vitro ADME, human
Description: Caco-2 cells were cultured in high glucose DMEM with 10% fetal bovine serum, 1% nonessential amino acids. Cells were cultured in a humidified atmosphere of 5% CO2 at 37°C. After reaching 80% confluens, Caco-2 cells were harvested with 0.05% trypsin-EDTA solution and seeded on top of CC inserts in 6-well plates, which has a surface area of 4.2 cm^2, at a density of 1.0×10^5 cells/cm^2. The protocols for cell culture in Transwell inserts were similar to those described previously.
Hank’s balanced salt solution (HBSS) was used as the transport buffer for the transport study in Caco-2 cell monolayer model. It was prepared by dissolving 9.5 grams of commercial available HBSS powder in 1000 mL water. The pH value of the buffer was adjusted to pH 6.0 by 85% of phosphoric acid.
Cell culture experiments were described previously. Briefly, after culture medium was aspirated, the cell monolayers were washed three times with blank HBSS. The transepithelial electrical resistance (TEER) values of cell monolayers were measured, which were more than […]. The monolayers were incubated with the blank HBSS for 1 h with 37°C. Thereafter the incubation medium was aspirated. […] The amounts of transported compound were measured as a function of time by UPLC-MS method described previously. […] At the end of the transport experiment, integrity of the monolayer was monitored by TEER value.

[8] = rat, in vivo, po
[9] = system: GI membrane; experiment: GI membrane toxicity by morphological observation; format: in vivo, rat; conditions: rats, oral, COS 25 mg/kg
Description: After in vivo pharmacokinetics experiments were carried out for 8 h, the GI was wash with HBSS (pH 7.4) and the segments were removed and immersed in the 4% neutral paraform aldehyde buffer and fixed. Vertical sections were prepared, stained with hematoxylin-eosin, and examined by light microscopy. To be able to describe possible changes in the structure of the tissue, tissues were studied and evaluated for morphological changes using the following parameters: Measurement of the distance between the nucleus and the apical membrane in enterocytes with a measuring-rod. Five measurements in each villus and five villi were measured in each slide. The villi were randomly chosen and measurements were all conducted at the tips of the villi. Villus index was used for duodenum, jejunum and ileum and crypt index for colon. Measurement of height (villi) or depth (crypt) and width (one-half of height or depth) was done with a measuring-rod of five villi/crypts in each slide that were randomly chosen. Height/depth was divided with width to receive the index.

O=C(/C=C/c1ccc(O)c(O)c1)O[C@@H]1C[C@](O)(C(=O)O)C[C@@H](O)[C@H]1O [CHA, Chlorogenic acid]
T 1/2λz [1]: 3.63 h
T max [1]: 0.75 h
absolute bioavailability orally [1]: about 0.69%
T 1/2z ([2]; 60 mg/kg): 1.05 h
AUC(0-t) [3]: 144 ng·h/mL

C[C@@H]1O[C@@H](OC[C@H]2O[C@@H](OCCc3ccc(O)c(O)c3)[C@H](O)[C@@H](O)[C@@H]2OC(=O)/C=C/c2ccc(O)c(O)c2)[C@H](O)[C@H](O)[C@H]1O [FTA, forsythoside A]
T 1/2λz [1]: 6.72 h
T max [1]: 0.75 h
absolute bioavailability orally [1]: ~0.72%
IC50 [4]: 1.9 µM
T 1/2λz ([2]; 100 mg/kg): 1.24 h
AUC(0-t) [3]: 28.5 ng·h/mL

N[C@H]1[C@H](O[C@H]2[C@H](O)[C@@H](N)[C@H](O[C@H]3[C@H](O)[C@@H](N)[C@H](O[C@H]4[C@H](O)[C@@H](N)[C@H](O[C@H]5[C@H](O)[C@@H](N)[C@H](O[C@H]6[C@H](O)[C@@H](N)C(O)O[C@@H]6CO)O[C@@H]5CO)O[C@@H]4CO)O[C@@H]3CO)O[C@@H]2CO)O[C@H](CO)[C@@H](O)[C@@H]1O (some centres unmarked) [chitosan hexamer]
increase of the bioavailability of insulin and FDs [5]: about 2.5 times

NC(=O)c1ncn([C@@H]2O[C@H](CO)[C@@H](O)[C@H]2O)n1 [ribavirin]
inhibition rate on influenza virus compared with PBS group [6]: remarkable increase

Chito-oligosaccharide [COS]
effect on the P app-value for FTA and CHA compared to the control group [7]: significant, concentration-dependent increase
CHA AUC0-480 min ([8]; 12.5 mg/kg): 52938.0±3520.0 ng⋅min/mL
FTA AUC0-480 min ([8]; 12.5 mg/kg): 2874.7±564.9 ng⋅min/mL
CHA AUC0-480 min ([8]; 25 mg/kg): 296980.0±36456.0 ng⋅min/mL
FTA AUC0-480 min ([8]; 25 mg/kg): 6286.0±1329.7 ng⋅min/mL
CHA AUC0-480 min ([8]; 50 mg/kg): 152641.5±72581.0 ng⋅min/mL
FTA AUC0-480 min ([8]; 50 mg/kg): 3143.0±572.1 ng⋅min/mL

Triton X-100
Nucleo-apical distance ([9]; duodenum, jejunum and ileum, Triton X-100 200 mg/kg, vs PBS group): remarkable decrease
villi/crypt index ([9]; duodenum, jejunum, ileum and colon, Triton X-100 200 mg/kg, vs PBS group): remarkable decrease
morphology of the GI membrane (HE sections: stomach, jejunum, colon) ([9]; Triton X-100 200 mg/kg as positive control): could cause mucosal damage seriously
